Reference: paper PMC10233092, “Selective Janus kinase 1 inhibition resolves inflammation and restores hair growth offering a viable treatment option for alopecia areata” (Skin Health and Disease, 2023)
In brackets after ≈: the same amount, converted by molar mass. Several values for one entry are separate records, joined by “and”; a condition that tells them apart may be missing. Identical values can stand only once.

Legend:
[1] = Caco permeability and efflux; assay type: in vitro ADME; settings: human, Caco-2; for Papp A→B: read-out: Caco AtB
From the text: TABLE 2 In vitro and in vivo DMPK properties of Cmpd A, B & C | column: In vitro mouse & physical chemical properties / Caco AtB 10^−6 cm/s/Efflux ratio ^b

[2] = Unbound fraction in tissue from rearranged Gillette equation; assay type: in vitro ADME, mouse; settings: mouse; from rearranged Gillette equation, V blood 0.07 L/kg, V tissue 0.6 L/kg
From the text: Detailed description in Supplementary materials.

[3] = target: JAK1 (Homo sapiens, UniProt P23458); test: JAK1 kinase inhibition, Calliper assay; assay type: biochemical; settings: physiological ATP concentration of 5 mM
[4] = Solubility in phosphate buffer; assay type: physicochemical; settings: pH 7.4, aqueous buffer
From the text: TABLE 1 In vitro potency and selectivity of JAK inhibitors | column: Solubility (μM) ^c

[5] = system: C3H/HeJ mouse model of AA; test: Hair growth (Hair Index Score) in C3H/HeJ graft-induced AA mice; assay type: in vivo; settings: for hair growth, result in words: AA mice; for Hair index score (% area x score, 0 to 3): individual mice and mean±SD
Experimental: Female C3H/HeJ graft‐induced mice were used as a preclinical model of Alopecia Areata (AA) according to previous publications.[45], [46], [47] Healthy C3H/HeJ and mice with fully developed AA (16–24 weeks after induction of disease) were monitored by means of body weight and hair index score on a weekly basis for 12 weeks, with free access to food and water (Healthy and AA groups, respectively).
Hair growth was evaluated using a scoring index (Hair Index Score, HIS). A score from 0 to 3 (0 = no fur, 1 = stubble, short broken hairs, 2 = sparse, intermediate length hairs, 3 = normal length and density hairs) was taken times the surface area of the mouse with each respective score (dorsal area = 50%, ventral area = 50%).
12 mice were given once daily servings of Cmpd A for free eating at approximately 100 mg/kg (compound dissolved in 10 ml tap water and mixed with 5 g grounded R70 standard rodent chow from Lantmännen, Sweden) for 4 weeks. Typically, these servings were finished within 2 h. Six mice were terminated at the end of the treatment period, blood and skin taken for determination of drug concentration and skin sampled for histopathological evaluation (see below, these mice are representing the systemic JAK1 inhibition group in histopathological evaluations). Skin biopsies for mRNA expression and blood was sampled from the other 6 mice where after these mice were followed off treatment for an additional 8 weeks when terminal samples were taken (8w off Tx group).
Another set of 6 mice were treated topically on the right side of their back with Cmpd B (0.1% cream formulation, Eucerin Aquaporin rich) for 12 weeks (local JAK1 inhibition group). Initially, twice weekly for 2 weeks followed by once weekly due to high tissue retention. Plasma exposure was evaluated during the course of the study as well as at termination when also skin was sampled for exposure, histopathological evaluation and mRNA expression.
The aim of the study was to achieve similar skin exposures by both routes of administration but only systemic exposure after oral administration. […] Blood, skin, lymph nodes and spleens were collected at termination for evaluation of exposure, mRNA expression, histopathology (RNAScope) and cell differentials (flow cytometry). Untreated healthy and alopecic mice served as controls (n = 6).

[6] = system: IL‐4, STAT6‐Luc; test: IL-4-induced JAK-STAT6-luciferase assay in U937 monocytes; assay type: cell-based; settings: Homo sapiens, U-937, interleukin at EC80
[7] = Basic pKa; assay type: physicochemical; settings: read-out: Basic pKa's
From the text: TABLE 2 In vitro and in vivo DMPK properties of Cmpd A, B & C | column: In vitro mouse & physical chemical properties / Basic pKa's

[8] = target: T1, JAK3 (Homo sapiens, UniProt P52333); test: JAK3 kinase inhibition, Calliper assay; assay type: biochemical; settings: physiological ATP concentration of 5 mM
T1 sequence (P52333 1-1124): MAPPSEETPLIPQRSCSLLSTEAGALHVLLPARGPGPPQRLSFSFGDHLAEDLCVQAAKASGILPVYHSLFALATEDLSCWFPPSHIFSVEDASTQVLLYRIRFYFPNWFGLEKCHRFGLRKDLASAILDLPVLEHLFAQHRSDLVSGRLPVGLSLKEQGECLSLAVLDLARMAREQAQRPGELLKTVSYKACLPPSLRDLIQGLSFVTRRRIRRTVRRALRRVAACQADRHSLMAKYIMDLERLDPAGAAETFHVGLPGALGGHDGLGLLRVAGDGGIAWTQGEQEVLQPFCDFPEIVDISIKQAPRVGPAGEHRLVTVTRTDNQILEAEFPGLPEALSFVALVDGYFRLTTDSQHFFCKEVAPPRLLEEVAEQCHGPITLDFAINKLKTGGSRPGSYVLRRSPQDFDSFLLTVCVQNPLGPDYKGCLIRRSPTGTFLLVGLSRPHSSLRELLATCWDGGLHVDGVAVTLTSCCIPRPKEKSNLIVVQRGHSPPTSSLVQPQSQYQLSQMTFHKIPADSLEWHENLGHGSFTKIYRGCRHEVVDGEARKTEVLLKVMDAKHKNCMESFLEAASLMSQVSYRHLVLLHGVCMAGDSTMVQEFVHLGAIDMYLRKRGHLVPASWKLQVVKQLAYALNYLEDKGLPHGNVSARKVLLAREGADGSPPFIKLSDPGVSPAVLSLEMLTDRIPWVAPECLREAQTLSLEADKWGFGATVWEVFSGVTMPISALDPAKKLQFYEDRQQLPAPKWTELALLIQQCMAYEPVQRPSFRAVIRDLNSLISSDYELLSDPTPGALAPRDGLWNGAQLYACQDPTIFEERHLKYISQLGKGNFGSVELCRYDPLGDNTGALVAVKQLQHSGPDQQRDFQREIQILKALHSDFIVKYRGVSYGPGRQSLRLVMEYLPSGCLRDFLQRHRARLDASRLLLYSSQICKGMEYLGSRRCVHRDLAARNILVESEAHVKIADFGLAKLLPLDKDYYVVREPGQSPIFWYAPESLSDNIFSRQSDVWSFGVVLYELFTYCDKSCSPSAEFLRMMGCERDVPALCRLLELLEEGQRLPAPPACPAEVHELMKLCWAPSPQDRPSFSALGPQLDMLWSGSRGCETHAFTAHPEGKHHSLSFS

[9] = LogD7.4; assay type: physicochemical; settings: pH 7.4
From the text: TABLE 2 In vitro and in vivo DMPK properties of Cmpd A, B & C | column: In vitro mouse & physical chemical properties / LogD7.4

[10] = topical application (local exposure)

Sequence of JAK1 (P23458 whole entry, species assumed): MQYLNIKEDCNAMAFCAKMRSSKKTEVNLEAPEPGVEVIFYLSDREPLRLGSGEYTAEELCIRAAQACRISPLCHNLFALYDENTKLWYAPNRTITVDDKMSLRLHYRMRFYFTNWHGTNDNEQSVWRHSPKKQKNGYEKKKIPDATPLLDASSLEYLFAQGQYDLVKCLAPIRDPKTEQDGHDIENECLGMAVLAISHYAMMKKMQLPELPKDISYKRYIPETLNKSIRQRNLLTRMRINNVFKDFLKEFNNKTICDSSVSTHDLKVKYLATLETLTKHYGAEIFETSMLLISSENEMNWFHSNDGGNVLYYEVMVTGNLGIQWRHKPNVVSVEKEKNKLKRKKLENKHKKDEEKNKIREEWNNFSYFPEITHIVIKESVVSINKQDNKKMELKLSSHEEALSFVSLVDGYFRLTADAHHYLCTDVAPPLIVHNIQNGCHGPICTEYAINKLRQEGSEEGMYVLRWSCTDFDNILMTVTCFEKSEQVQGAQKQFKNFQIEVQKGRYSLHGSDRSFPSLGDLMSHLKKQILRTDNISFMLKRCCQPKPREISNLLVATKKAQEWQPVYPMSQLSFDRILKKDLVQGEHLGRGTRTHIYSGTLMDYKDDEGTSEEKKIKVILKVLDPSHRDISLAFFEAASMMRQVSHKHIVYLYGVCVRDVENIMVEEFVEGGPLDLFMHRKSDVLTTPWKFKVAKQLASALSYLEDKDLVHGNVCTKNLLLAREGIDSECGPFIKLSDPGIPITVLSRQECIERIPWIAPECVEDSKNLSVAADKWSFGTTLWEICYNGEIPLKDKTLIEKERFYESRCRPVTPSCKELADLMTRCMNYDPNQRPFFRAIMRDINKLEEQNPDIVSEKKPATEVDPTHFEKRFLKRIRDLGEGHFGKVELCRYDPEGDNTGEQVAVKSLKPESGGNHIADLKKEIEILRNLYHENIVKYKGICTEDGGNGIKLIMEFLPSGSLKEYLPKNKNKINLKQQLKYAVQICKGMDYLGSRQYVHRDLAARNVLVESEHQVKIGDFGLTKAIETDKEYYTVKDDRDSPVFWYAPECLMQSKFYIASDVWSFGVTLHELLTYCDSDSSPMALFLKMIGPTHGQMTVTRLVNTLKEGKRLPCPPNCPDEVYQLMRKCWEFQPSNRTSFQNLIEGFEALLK

For `Cc1cnc(Nc2cc(N3C[C@@H]4C[C@H]3CN4C)cnc2F)nc1N[C@H](C)[C@H](C)CO` [Cmpd B, (2S,3R)-3-{[2-({2-fluoro-5-[(1S,4S)-5-methyl-2,5-diazabicyclo[2.2.1]heptan-2-yl]pyridin-3-yl}amino)-5-methylpyrimidin-4-yl]amino}-2-methylbutan-1-ol], which efflux ratio ([1]; Efflux ratio = BtA/AtB) is on record?
Its efflux ratio is 14.

And the Papp A→B [1]?
The Papp A→B was 0.3 ×10⁻⁶ cm/s.

What about the “f u, tissue” value [2] of the same compound?
Its value is 0.063.

And the IC50 [3]?
The IC50 was 9.3 nM.

What about the solubility [4] of the same compound?
Its solubility is greater than 955 µM.

And the “hair growth, result in words” value [5, 10]?
Its value is “did not restore hair growth”.

What about the “Hair index score (% area x score, 0 to 3)” value ([5]; Local JAK1i (0.1% cream topical), treated side, w0, n=6) of the same compound?
The value was 50 and 0.

And the “Hair index score (% area x score, 0 to 3)” value ([5]; Local JAK1i (0.1% cream topical), treated side, w0, n=6, mean)?
The value was 17±26.

And the “Hair index score (% area x score, 0 to 3)” value ([5]; Local JAK1i (0.1% cream topical), untreated side, w0, n=6)?
Its value is 30 and 0 and 10.

And the “Hair index score (% area x score, 0 to 3)” value ([5]; Local JAK1i (0.1% cream topical), untreated side, w0, n=6, mean)?
Its value is 7±12.

And the “Hair index score (% area x score, 0 to 3)” value ([5]; Local JAK1i, treated side, w1)?
The value was 50 and 0 and 100.

What about the “Hair index score (% area x score, 0 to 3)” value ([5]; Local JAK1i, treated side, w1, mean) of the same compound?
The value was 25±42.

What about the “Hair index score (% area x score, 0 to 3)” value ([5]; Local JAK1i, treated side, w4) of the same compound?
Its value is 80 and 0 and 10 and 20.

And the “Hair index score (% area x score, 0 to 3)” value ([5]; Local JAK1i, treated side, w4, mean)?
Its value is 18±31.

What about the “Hair index score (% area x score, 0 to 3)” value ([5]; Local JAK1i, treated side, w6) of the same compound?
The value was 200 and 0 and 50 and 30.

And the “Hair index score (% area x score, 0 to 3)” value ([5]; Local JAK1i, treated side, w6, mean)?
Its value is 47±78.

What about the “Hair index score (% area x score, 0 to 3)” value ([5]; Local JAK1i, treated side, w7) of the same compound?
The value was 200 and 80 and 0 and 100.

What about the “Hair index score (% area x score, 0 to 3)” value ([5]; Local JAK1i, treated side, w7, mean) of the same compound?
Its value is 80±75.

What about the “Hair index score (% area x score, 0 to 3)” value ([5]; Local JAK1i, treated side, w8) of the same compound?
The value was 200 and 0 and 50 and 100.

What about the “Hair index score (% area x score, 0 to 3)” value ([5]; Local JAK1i, treated side, w8, mean) of the same compound?
The value was 58±80.

What about the “Hair index score (% area x score, 0 to 3)” value ([5]; Local JAK1i, treated side, w9) of the same compound?
Its value is 240 and 0 and 25 and 70 and 90.

And the “Hair index score (% area x score, 0 to 3)” value ([5]; Local JAK1i, treated side, w9, mean)?
The value was 71±91.

And the “Hair index score (% area x score, 0 to 3)” value ([5]; Local JAK1i, treated side, w11)?
The value was 240 and 0 and 100 and 80.

And the “Hair index score (% area x score, 0 to 3)” value ([5]; Local JAK1i, treated side, w11, mean)?
Its value is 70±94.

And the “Hair index score (% area x score, 0 to 3)” value ([5]; Local JAK1i, untreated side, w1)?
The value was 40 and 0 and 100.

And the “Hair index score (% area x score, 0 to 3)” value ([5]; Local JAK1i, untreated side, w1, mean)?
The value was 23±41.

What about the “Hair index score (% area x score, 0 to 3)” value ([5]; Local JAK1i, untreated side, w4) of the same compound?
The value was 70 and 0 and 10 and 30.

And the “Hair index score (% area x score, 0 to 3)” value ([5]; Local JAK1i, untreated side, w4, mean)?
Its value is 18±28.

What about the “Hair index score (% area x score, 0 to 3)” value ([5]; Local JAK1i, untreated side, w6) of the same compound?
Its value is 170 and 0 and 10 and 20.

What about the “Hair index score (% area x score, 0 to 3)” value ([5]; Local JAK1i, untreated side, w6, mean) of the same compound?
The value was 33±67.

And the “Hair index score (% area x score, 0 to 3)” value ([5]; Local JAK1i, untreated side, w7)?
Its value is 170 and 0.

And the “Hair index score (% area x score, 0 to 3)” value ([5]; Local JAK1i, untreated side, w7, mean)?
Its value is 28±69.

And the “Hair index score (% area x score, 0 to 3)” value ([5]; Local JAK1i, untreated side, w8)?
The value was 170 and 0 and 10.

What about the “Hair index score (% area x score, 0 to 3)” value ([5]; Local JAK1i, untreated side, w8, mean) of the same compound?
The value was 30±69.

What about the “Hair index score (% area x score, 0 to 3)” value ([5]; Local JAK1i, untreated side, w9) of the same compound?
Its value is 200 and 0 and 25.

What about the “Hair index score (% area x score, 0 to 3)” value ([5]; Local JAK1i, untreated side, w9, mean) of the same compound?
The value was 37±80.

And the “Hair index score (% area x score, 0 to 3)” value ([5]; Local JAK1i, untreated side, w11)?
Its value is 200 and 0 and 30 and 50.

What about the “Hair index score (% area x score, 0 to 3)” value ([5]; Local JAK1i, untreated side, w11, mean) of the same compound?
The value was 47±78.

And the IC50 [6]?
Its IC50 is 110 nM.

What about the pKa [7] of the same compound?
Its pKa is 8.6.

And the IC50 [8]?
The IC50 was greater than 30 µM.

What about the logD [9] of the same compound?
Its logD is 1.5.

Which Papp A→B [1] does the source give for `COCC(C(=O)Nc1cccc2c(-c3nc(Nc4cccc(S(C)(=O)=O)c4F)ncc3F)c[nH]c12)N1CCN(C)CC1` (stereo not shown) [Cmpd C] here?
Its Papp A→B is 6.7 ×10⁻⁶ cm/s.

What about the “f u, tissue” value [2] of the same compound?
Its value is 0.011.

And the IC50 [3]?
Its IC50 is less than 3 nM.

What about the solubility [4] of the same compound?
Its solubility is 6.6 µM (≈ 3.96 µg/mL).

And the “hair growth, result in words” value ([5]; oral daily servings (systemic exposure))?
The value was “induced hair growth”.

And the “hair growth, result in words” value [5, 10]?
Its value is “did not”.

And the IC50 [6]?
Its IC50 is 24 nM.

What about the pKa [7] of the same compound?
The pKa was 7.9.

What about the IC50 [8] of the same compound?
Its IC50 is greater than 30 µM.

What about the logD [9] of the same compound?
Its logD is 2.6.
